# Read-outs that look alike come from different tables or passages of the source.
# Columns and labels:
# [1] = tested on: PPARG (murine PPARg2 or full-length human PPARG, 3xPPRE-luciferase reporter); experiment: Cell-based PPRE-luciferase transactivation assay in COS-1 cells; details: for % transactivation (PPRE): PPRE transactivation data, at 10 μM; for PPRE transactivation (% in parentheses): rosiglitazone = 100%
# [2] = biological target: Rb protein (cdk5 substrate) (Homo sapiens (Human), UniProt Q00535); experiment: cdk5 phosphorylation of Rb protein in vitro (Western blot); format: biochemical
# Description: (§1) In order to develop a suitable ligand, we optimized compounds for (i) high binding affinity for PPARG, (ii) blocking the cdk5-mediated PPARG phosphorylation and (iii) lacking classical agonism. Classical agonism is defined here, as is standard in the nuclear receptor field, as an increased level of transcription through a tandem PPAR response element luciferase reporter (PPRE::Luc).
# pre-adipose cell lines = experiment: Fat cell differentiation (Oil Red O staining, adipogenic gene expression); format: cell-based; details: for fat cell differentiation / lipid accumulation: Oil Red O staining; for expression of aP2, C/EBPα and Glut4: genes linked to adipogenesis
# MC3T3-E1 cells = experiment: Mineralization of osteoblastic cells (Alizarin red S staining, osteoblast gene expression); format: cell-based, mouse; details: for mineralization (calcification): Alizarin red S staining
# Description: Moreover, the expression of genes involved in the differentiation of these cells was impaired (alkaline phosphatase, RANKL, type I collagen).
# ob/ob mouse = experiment: Leptin-deficient ob/ob mouse model; details: ob/ob mice; for insulin levels / fasting glucose levels: after five days of treatment; for fasting glucose levels: vehicle 110±13; for body weight: longer treatment (11 days)
# Experimental: A more severe model of obesity is the leptin-deficient ob/ob mouse. These animals are very obese and insulin-resistant, with substantial compensatory hyperinsulinemia. […] Functional analyses were performed at days 5 and 11 after the start of treatments.
# Longer treatments with these drugs allowed an assessment of certain side effects.
# RAW264.7 cells = experiment: Inflammatory cytokine production in LPS stimulated RAW264.7 cells; format: cell-based
# GST-PPARG-LBD = GST-PPARG-LBD (Homo sapiens (Human), UniProt P37231); experiment: Lanthascreen PPARG competitive binding assay (Invitrogen, TR-FRET); details: NA = not active, inc = incomplete curve, read-out: IC50 (nM) Lantha
# Chain of GST-PPARG-LBD (P37231 238-503): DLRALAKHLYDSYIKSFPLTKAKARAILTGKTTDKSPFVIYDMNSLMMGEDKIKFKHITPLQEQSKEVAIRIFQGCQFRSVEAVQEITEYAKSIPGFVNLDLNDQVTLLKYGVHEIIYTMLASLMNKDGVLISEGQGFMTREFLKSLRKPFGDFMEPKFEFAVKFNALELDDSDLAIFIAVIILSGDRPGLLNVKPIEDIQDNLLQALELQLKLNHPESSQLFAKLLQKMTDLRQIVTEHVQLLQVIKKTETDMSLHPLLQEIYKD
# In short: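 TR-FRET competitive binding of GST-PPARG-LBD with 5 nM Tb-GST-antibody and 5 nM Fluormone Pan-PPAR Green tracer, in TR-FRET buffer C. Compound serially diluted from 10 μM, 2 h dark incubation, in triplicate. Readout is 520/490 nm emission ratio (340 nm excitation), expressed as fold change over 2% DMSO control.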
# [3] = biological target: PPARG (murine PPARg2 or full-length human PPARG, 3xPPRE-luciferase reporter) (Homo sapiens, UniProt P37231); experiment: Cell-based PPRE-luciferase transactivation assay in COS-1 cells
# Chain of PPARG (murine PPARg2 or full-length human PPARG, 3xPPRE-luciferase reporter) (Homo sapiens, UniProt P37231) (P37231 whole entry, looked up): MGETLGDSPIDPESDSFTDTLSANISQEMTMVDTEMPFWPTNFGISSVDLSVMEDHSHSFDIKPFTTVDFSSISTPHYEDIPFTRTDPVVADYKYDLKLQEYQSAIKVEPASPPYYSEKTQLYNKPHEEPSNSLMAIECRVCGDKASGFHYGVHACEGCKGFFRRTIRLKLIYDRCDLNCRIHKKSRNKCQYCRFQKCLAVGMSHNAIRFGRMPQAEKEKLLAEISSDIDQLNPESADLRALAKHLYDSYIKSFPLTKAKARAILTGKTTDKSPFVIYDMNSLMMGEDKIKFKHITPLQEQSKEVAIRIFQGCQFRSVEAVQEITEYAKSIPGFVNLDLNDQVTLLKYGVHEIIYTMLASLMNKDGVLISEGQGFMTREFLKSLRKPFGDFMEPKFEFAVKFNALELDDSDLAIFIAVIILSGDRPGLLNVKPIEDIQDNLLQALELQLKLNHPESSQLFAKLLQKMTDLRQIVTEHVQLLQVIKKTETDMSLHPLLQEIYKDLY
# differentiated fat cells = experiment: cdk5-mediated phosphorylation of PPARG in differentiated fat cells; format: cell-based
# Description: as §1
# [4] = tested on: obese, insulin-resistant mice; experiment: Hyperinsulinemic-euglycemic clamp in obese mice; format: in vivo, mouse
# Description: The most accurate method for measuring changes in insulin sensitivity is the hyperinsulinemic-euglycemic clamp (DeFronzo et al., 1979). In this method, animals are exposed to an elevated concentration of insulin while the amount of glucose infused is adjusted in real time to maintain fixed, or clamped glycemia.
# [5] = Pharmacokinetic properties; details: in vivo
# [6] = tested on: obese, insulin-resistant mice; experiment: Wild-type mice fed a calorie dense diet high in sugar and fat (obese, insulin-resistant)
# [7] = Lanthascreen competitive binding
# [8] = PPRE-luciferase, COS-1 cells, NA = not active, read-out: EC50 (nM) PPRE
# [9] = injected twice daily for 5 days
smiles,measurement,setting,value
"CN(CCOc1ccc(CC2SC(=O)NC2=O)cc1)c1ccccn1 (stereo not shown) [rosiglitazone, reference compound]",activation of the PPRE reporter,[1]; COS-1 cells,[…]
same,effect on cdk5 phosphorylation of the Rb protein,[2],no effect
same,fat cell differentiation / lipid accumulation,pre-adipose cell lines,potently stimulated fat cell differentiation
same,"expression of aP2, C/EBPα and Glut4",pre-adipose cell lines,increased expression
same,"expression of osteoblast differentiation genes (alkaline phosphatase, RANKL, type I collagen)",MC3T3-E1 cells,impaired
same,mineralization (calcification),MC3T3-E1 cells,reduced the mineralization
same,glucose tolerance test,ob/ob mouse,markedly improved
same,insulin levels,ob/ob mouse,substantially reduced
same,fasting glucose levels,ob/ob mouse,88 ± 13 mg/dL
same,body fat / adiposity by MRI,ob/ob mouse; longer treatment,increase in body fat
same,hematocrit (fluid retention),ob/ob mouse; longer treatment,characteristic decrease
same,body weight,ob/ob mouse,increase in body weight
same,production of inflammatory cytokines,RAW264.7 cells,inhibition of production of inflammatory cytokines
"Cc1c(C)n(Cc2ccc(-c3ccccc3C(=O)O)cc2)c2ccc(C(=O)N[C@H]3COc4ccccc4C3)cc12 [Example 249, (R)-4′-((5-(chroman-3-ylcarbamoyl)-2,3-dimethyl-1H-indol-1-yl)methyl)-[1,1′-biphenyl]-2-carboxylic acid]",IC50,GST-PPARG-LBD; [7],22 nM
same,EC50,[3]; [8],80 nM
same,PPRE transactivation (% in parentheses),[1],(1%)
Cc1c(C)n(Cc2ccc(-c3ccccc3C(=O)O)cc2)c2ccc(C(=O)N[C@@H](C)c3ccc([N+](=O)[O-])cc3)cc12 [SR1664],transcriptional agonism on tandem PPRE::Luc reporter,[1]; compared to rosiglitazone or MRL24,[…]
same,effect on cdk5 phosphorylation of the Rb protein,[2],no effect
same,blocking cdk5-mediated phosphorylation of PPARG in differentiated fat cells,differentiated fat cells,effective at blocking
same,fat cell differentiation / lipid accumulation,pre-adipose cell lines,did not stimulate increased lipid accumulation or changes in morphology
same,"expression of aP2, C/EBPα and Glut4",pre-adipose cell lines,little or no change
same,"expression of osteoblast differentiation genes (alkaline phosphatase, RANKL, type I collagen)",MC3T3-E1 cells,did not affect
same,mineralization (calcification),MC3T3-E1 cells,did not affect
same,plasma FFA,[4]; basal and clamped conditions,reduction
same,glucose uptake in the adipose tissue,[4]; clamp,significantly enhanced
same,suppression of endogenous hepatic glucose production (EGP),[4]; clamp,increased
same,whole body glucose utilization,[4]; clamp,not increased
same,glucose infusion rate (GIR) needed to maintain euglycemia,[4]; versus vehicle alone,significantly greater
same,glucose tolerance test,ob/ob mouse,markedly improved
same,insulin levels,ob/ob mouse,substantially reduced
same,fasting glucose levels,ob/ob mouse,90 ± 12 mg/dL
same,body fat / adiposity by MRI,ob/ob mouse; longer treatment,no decrease in the hematocrit or change in body adiposity
same,hematocrit (fluid retention),ob/ob mouse; longer treatment,no decrease
same,body weight,ob/ob mouse,did not cause the weight gain
same,production of inflammatory cytokines,RAW264.7 cells,inhibition of production of inflammatory cytokines
same,pharmacokinetic properties,[5],adequate
same,body weight compared to vehicle treated mice,[6]; [9],without significant differences
same,cdk5-mediated phosphorylation of PPARG at serine 273 in adipose tissue,[6]; [9],dose-dependent decrease
same,fasting insulin levels,[6]; [9],significant reduction
same,glucose levels,[6]; [9],trend toward lowered (and normalized) glucose levels
same,insulin resistance as computed by HOMA-IR,[6]; [9],clear and dose-dependent improvement
same,expression of adiponectin and adipsin,"[6]; mouse, in vivo",induced
"Cc1c(C)n(Cc2ccc(-c3ccccc3C(=O)O)cc2)c2ccc(C(=O)N[C@@H]3C[C@H]3c3ccccc3)cc12 [Example 294, 4′-((2,3-Dimethyl-5-(((1R,2S)-2-phenylcyclopropyl)carbamoyl)-1H-indol-1-yl)methyl)-[1,1′-biphenyl]-2-carboxylic acid]",IC50,GST-PPARG-LBD; Lanthascreen PPARG competitive binding,22 nM
same,EC50,"[3]; PPRE transactivation data, read-out: PPRE EC50",517 nM
same,% transactivation (PPRE),[1],(28%)
"Cc1c(C)n(Cc2ccc(-c3ccccc3-c3nnn[nH]3)cc2)c2ccc(C(=O)N[C@@H](C)c3ccc(Br)cc3)cc12 [Example 37, (S)-1-((2′-(1H-tetrazol-5-yl)-[1,1′-biphenyl]-4-yl)methyl)-N-(1-(4-bromophenyl)ethyl)-2,3-dimethyl-1H-indole-5-carboxamide]",IC50,GST-PPARG-LBD; [7],> 1000 nM
same,EC50,[1]; [8],1000 nM
same,PPRE transactivation (% in parentheses),[1],(19%)
"Cc1c(C)n(Cc2ccc(-c3ccccc3C(=O)O)cc2)c2ccc(C(=O)NCc3ccc(C#N)cc3)cc12 [compound 8, 4′-((5-(4-Cyanobenzylcarbamoyl)-2,3-dimethyl-1H-indol-1-yl)methyl)biphenyl-2-carboxylic acid]",IC50,GST-PPARG-LBD; [7],34 nM
same,EC50,[1]; [8],9000 nM
same,PPRE transactivation (% in parentheses),[1],(12%)
"Cc1c(C)n(Cc2ccc(-c3ccccc3C(=O)O)cc2)c2ccc(C(=O)NCc3ccc(N(C)C)cc3)cc12 [compound 11, 4′-((5-(4-(Dimethylamino)benzylcarbamoyl)-2,3-dimethyl-1H-indol-1-yl)methyl)biphenyl-2-carboxylic acid]",IC50,GST-PPARG-LBD; [7],13 nM
same,EC50,[1]; [8],154 nM
same,PPRE transactivation (% in parentheses),[1],(29%)
"Cc1c(C)n(Cc2ccc(-c3ccccc3C(=O)O)cc2)c2ccc(C(=O)NCc3cccc(S(C)(=O)=O)c3)cc12 [compound 4, 4′-((2,3-Dimethyl-5-(3-(methylsulfonyl)benzylcarbamoyl)-1H-indol-1-yl)methyl)biphenyl-2-carboxylic acid]",IC50,GST-PPARG-LBD; [7],230 nM
same,PPRE transactivation (% in parentheses),[1],(0%)

# Reference: US8957093B2, “N-biphenylmethylindole modulators of PPARG” (The Scripps Research Institute, priority 2011, dated 2015)
